Data as given in the METLIN SMRT retention time set (Domingo-Almenara et al. 2019).

Test: gradient 5% acetonitrile 3 min, to 50% in 2 min, to 85% in 15 min, held 3 min, 100 µL/min
Conditions: column: Zorbax Extend-C18 2.1 x 50 mm; eluents: water / acetonitrile, 0.1% formic acid
Method in brief: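 In both positive and negative ionization mode, a quadrupole time-of-flight mass spectrometer coupled to HPLC analyzed pure standards run in mixtures of ~100 molecules. The Zorbax Extend-C18 column (2.1 × 50 mm, 1.8 μm) was operated at 100 μL/min with water and acetonitrile, each containing 0.1% formic acid. The dead volume was 40 μL and the dwell volume 900 μL. Retention time came from adduct peaks that were computationally picked and individually inspected by hand.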

RP-LC retention time | Compound
815 s | O=C(NCc1ccccc1Cl)C1CCN(S(=O)(=O)c2cc(C(=O)N3CCCC3)cs2)CC1
793 s | Cc1ccc(CNC(=O)c2cn(-c3ccc(NC(=O)C(C)C)cn3)cn2)cc1
848 s | O=C(Nc1ccc(Cl)cc1)N1CCC(n2cnc3cc(F)ccc3c2=O)CC1
706 s | Cc1cc(NC(=O)N2CCC(n3c(C)nc4cccnc43)CC2)ccc1Br
719 s | CC(C)N1CCn2c(nc3cc(C(=O)NCc4ccccc4Cl)ccc32)C1=O
631 s | CC(C)Cn1nc2n(c1=O)CCN(S(=O)(=O)c1ccc(C(C)(C)C)cc1)CC2
1050 s | CCCc1noc(-c2nc(-c3ccc(OC)c(OC)c3)no2)n1
1010 s | Cc1ccc(C)c(-c2cc3c4nn(CC(=O)N(C)c5ccccc5)c(=O)n4ccn3n2)c1
1010 s | CCOC(=O)COC(=O)c1cn(-c2ccc(OC)cc2)c(=O)c2ccccc12
862 s | O=C(NCc1ccccc1)N1CCCC1c1nc(-c2ccc(F)cc2F)no1 (centres undefined)
976 s | CCOc1ccccc1NC(=O)N1CCC(n2c(C(F)(F)F)nc3cccnc32)CC1
671 s | O=C(Cn1cnc2ccccc2c1=O)N[C@@H](Cc1ccccc1)C(=O)O
798 s | COc1cccc(C(=O)N2CCCn3nc(-c4cccs4)cc3C2)c1OC
638 s | COc1ccc(-n2nc(C(=O)N3CCCCC3c3cccnc3)c(=O)n(C)c2=O)cc1 (centres undefined)
579 s | COC(=O)c1sccc1S(=O)(=O)NCC1CCN(Cc2cc(C)oc2C)CC1
620 s | O=C(Cn1ncn2nc(-c3ccccc3)cc2c1=O)N1CCN(c2ccccn2)CC1
721 s | O=C(COc1cccc(Cl)c1)N1CCN(c2nc(CN3CCOCC3)cs2)CC1
727 s | Cc1cc(-c2nnc3sc(COc4ccc(F)cc4)nn23)n[nH]1
741 s | COc1ccc(CNC(=O)C2(C)Cn3cnc(C(=O)N4CCc5ccccc54)c3C(=O)N2C2CC2)cc1 (centres undefined)
891 s | CCOC(=O)N1CCN(c2cnc3cc(S(=O)(=O)N4CCCCC4)ccc3n2)CC1
788 s | O=C(Nc1ccc(Oc2ccccc2)cc1)c1cccc([N+](=O)[O-])c1C(=O)O
1110 s | O=C(Cc1ccc(Cl)cc1)NCc1nc(-c2ccc(-c3csc(C4CC4)n3)cc2)no1

RP-LC retention time | Compound
910 s | O=C(NCc1csc(-c2ccccc2)n1)C1CCN(S(=O)(=O)c2ccc(F)cc2)CC1
603 s | O=C(Cn1ncc2c(N3CCN(c4ccccn4)CC3)ncnc21)N1CCN(c2ccccc2)CC1
765 s | CCc1nn2c(CNC(=O)C3CCCO3)c(-c3ccccc3)nc2s1 (centres undefined)
720 s | CS(=O)(=O)N1CCC(OC2CCN(C(=O)Nc3ccc(F)cc3F)CC2)CC1
733 s | Cc1ccc(S(=O)(=O)N2CCC(c3nc(C(=O)N4CCCC4)c(C)o3)CC2)cc1
806 s | CCSc1nnc(NC(=O)CSc2nnc(COc3ccccc3)o2)s1
676 s | COCCNC(=O)c1ccccc1-c1ocnc1C(=O)OC(C)C
715 s | Cc1cccc(C)c1NC(=O)N1CC(n2cnnc2-c2ccccc2)C1
824 s | COc1ccc(-c2ccnc3nc(CC(C)C)nn23)cc1OC
733 s | CCC(C)C(NC(=O)Cc1cccc(OC)c1)C(=O)Nc1nc2ccccc2[nH]1 (centres undefined)
563 s | Cc1noc(CNC(=O)C2CCN(C(=O)c3snnc3C)CC2)n1
638 s | O=C1CC(NC(=O)C2c3ccccc3Oc3ccccc32)CN1 (centres undefined)
607 s | CO[C@H]1C(=O)N(C(C)C)[C@H]1C1CCN(C(=O)CN2C(=O)CCC2=O)CC1
890 s | O=C(CN1C(=O)CCCc2cc(S(=O)(=O)N3CCCC3)ccc21)Nc1cccc(Cl)c1
610 s | O=C(NCCc1ccccn1)c1sc2ncccc2c1-n1cccc1
935 s | COc1ccc(CNC(=O)C2(C)CCCN(S(=O)(=O)c3cccc(C)c3)C2)cc1 (centres undefined)
862 s | COc1ccccc1-c1cnn2c(C)cc(C)nc12
1090 s | COCCn1c(SCc2nc(-c3cccc(F)c3)no2)nc2cc3c(cc2c1=O)OCO3
733 s | Cc1cccc(NC(=O)N2CCN(c3nc(C)cc(Nc4ccccc4)n3)CC2)c1
792 s | Nc1cc(C2CCN(S(=O)(=O)c3cccc(Cl)c3)CC2)no1
686 s | CCCN1CCCCc2cc(C(=O)NCC(N)=O)sc21
1110 s | COC(=O)c1sc(-c2ccccc2)cc1NC(=O)c1ccccc1[N+](=O)[O-]

RP-LC retention time | Compound
585 s | Cc1nc(NC(=O)Cn2nc(-n3cccn3)ccc2=O)sc1C(=O)N(C)C
632 s | O=C(Nc1nccs1)C1CCN(S(=O)(=O)C2CC2)CC1
785 s | COc1ccc(-c2noc(-c3ccc(N4CCN(Cc5ccc6c(c5)OCO6)CC4)nc3)n2)cc1
671 s | O=C(CC(F)(F)F)NCCc1noc(C2CC2)n1
570 s | CCC(=O)Nc1ccc(S(=O)(=O)NCCc2ccc(N(C)C)cc2)c(C)c1
695 s | CN1c2ccccc2C(=O)NC12CCN(C(=O)Nc1ccccc1F)CC2
879 s | Cc1cc(NC(=O)C(C)(C)C)nn1Cc1ccccc1
939 s | CCc1noc(-c2ccnc(-n3cnc(C(=O)NCc4ccccc4C)c3)c2)n1
572 s | CCCS(=O)(=O)N1CCCC(Cn2c(C)nc3cccnc32)C1 (centres undefined)
1000 s | COC(=O)c1ccc(Cl)cc1NC(=O)N1CCC2(CC1)NC(=O)c1ccccc1O2
632 s | CCc1nnc(-c2cc(NC(=O)c3ccc4nc[nH]c4c3)c(C)s2)o1
788 s | COC(=O)c1c(NCc2ccc3c(c2)OCO3)c2cccc(Cl)c2[nH]c1=O
1020 s | O=C(NCCCN1CCCc2ccccc21)c1nnc(-c2ccc(S(=O)(=O)N3CCCC3)cc2)o1
1200 s | Cc1nc2cc(-c3noc(Cc4cccs4)n3)ccc2n(C2CCCC2)c1=O
616 s | O=C(c1nc(CS(=O)(=O)c2ccccc2)no1)N1CCN(c2ccccn2)CC1
970 s | CC1(c2ccc3ccccc3c2)CCC(=O)O1 (centres undefined)
717 s | O=C([C@H]1C[C@@H](F)CN1S(=O)(=O)c1cccc(Cl)c1)N1CCOCC1
571 s | CCCCNC(=O)NC1CCS(=O)(=O)C1 (centres undefined)
1190 s | Cc1ccc(-n2nc(C)c3sc(N4CCCC(C(=O)NC(C)c5ccccc5)C4)nc32)cc1 (centres undefined)
630 s | Cc1ccc(C)c(CN2CCC(N3CCN(Cc4nc(C)no4)C3=O)C2)c1 (centres undefined)
954 s | Cc1cc(C(=O)O)c2c(C)nn(-c3cccc(F)c3)c2n1
1020 s | CCCCOc1ccc(C(=O)Nc2cccc3c2C(=O)NC3=O)cc1

RP-LC retention time | Compound
628 s | Cc1nn(-c2ccccc2)c2c1N(CCCC(=O)NCc1ccc(N(C)C)cc1)C(=O)CS2
561 s | Nc1nc(CN2CCN(c3ccccn3)CC2)nc(N2CCCCC2)n1
878 s | COc1cc(C(=O)Nc2cnn(C)c(=O)c2N2CCCCC2)cc(OC)c1OC
925 s | CCOC(=O)Cc1csc(NC(=O)c2cc3cc([N+](=O)[O-])ccc3s2)n1
718 s | Cc1sc(NC(=O)c2cccnc2)nc1-c1ccc2c(c1)NC(=O)C(C)O2 (centres undefined)
761 s | Cc1cc2nn(CC(=O)Nc3ccc(F)cc3Cl)c(=O)n2c(-c2ccccc2)n1
885 s | Cc1ccc(NC(=O)Cn2nc(N3CCCC3)c3ccccc3c2=O)c(F)c1
780 s | COc1cccc(CNC(=O)CN2C(=O)NC(c3ccccc3Cl)C3=C2COC3=O)c1 (centres undefined)
812 s | CCC1Oc2ccc(S(=O)(=O)N3CCC(C(=O)Nc4ccccc4F)CC3)cc2NC1=O (centres undefined)
819 s | O=C(Cc1ccccc1Cl)N1CCN(c2cc(-c3cccs3)[nH]n2)CC1
737 s | Cc1oc(C2CCN(C(=O)C3CCCN(S(=O)(=O)N4CCCC4)C3)CC2)nc1C(=O)N1CCCC1 (centres undefined)
616 s | COc1ccc(S(=O)(=O)Nc2cc(C)ccn2)cc1
692 s | CS(=O)(=O)N1CCC(CNC(=O)CCSc2ccccc2)CC1
716 s | O=C(O)CN1CCCc2nc(-c3ccccc3)ncc2C1=O
1010 s | Cn1nc(-c2nc(-c3ccccc3F)no2)c2c1CCN(C(=O)C1(c3ccccc3)CC1)C2
673 s | COc1ccc(N2CCN(C(=O)COc3ccc(NC(=O)C4CC4)cn3)CC2)cc1
985 s | Cc1ccc(-n2c(=O)c3sccc3n(Cc3nc(-c4ccccc4)no3)c2=O)cc1
747 s | Cc1cc(C)n(-c2ccnc(NCC(C)C)n2)n1
797 s | CC(C)CN1C(=O)c2cccn2CC1C(=O)NC1CCCCC1 (centres undefined)
854 s | CCc1noc(NC(C)=O)c1-c1ccc(OC)c(S(=O)(=O)Nc2cc(C)ccc2OC)c1
977 s | CC(=O)c1sc2nc(SC/C=C/c3ccccc3)[nH]c(=O)c2c1C
902 s | Cc1ccc(NC(=O)Cn2c(C)cc(-c3nnc(C4CCC4)o3)c2C)cc1C

Compound | RP-LC retention time
CSc1ccc(CNC(=O)CN2CC=C(c3cnn(-c4ccccc4)c3)CC2)cc1 | 720 s
